Values after ≈ are worked out from the molar mass of the structure shown.
Assays:
[1] = tested on: monoclonal antibody of the present invention (CMU-1); experiment: indirect competitive inhibition ELISA, cross reactivity test with monoclonal antibody CMU-1; type: binding, mouse; settings: for percent absorption (reactivity) with monoclonal antibody CMU-1: compound final concentration 0.5 mg/mL, uracil-BSA coated plate, absorbance at 415 nm; for dose-dependent response of the antibody to the compound / ED30 (concentration when the percent absorption reached 30%) / binding ability relative to pseudouridine: monoclonal antibody CMU-1; for binding ability relative to pseudouridine: ratio of ED30 values
Method: Into a 96-well immunoplate, uracil-BSA complex (10 μg/mL as reduced to BSA) was placed at 50 μL/well, and allowed to stand overnight at 4° C. Subsequently, the immunoplate was washed 7 times with PBS containing 0.1% polyoxyethylene(20) sorbitan monolaurate (product of Wako Pure Chemical Industries, Ltd.; a product equivalent to Tween 20) (pH 7.3-7.7, product of Nissui Chemical; hereinafter referred to as PBS-T). Subsequently, 0.2% gelatin (200 μL) was added to each well, and the immunoplate was left for 2 hours at 37° C., or overnight at 4° C.
Subsequently, the immunoplate was washed five times with PBS-T, and one of the below-described samples (50 μL/well) was added to the immunoplate, which was then left for 1 hour at 37° C. • (i) a reaction mixture prepared by mixing the supernatant of the hybridoma culture obtained in Example 3 (hereinafter referred to as the hybridoma culture supernatant) (30 μL) and PBS (30 μL) for reaction at 37° C. for one hour; • a (ii) a reaction mixture obtained by mixing the hybridoma culture supernatant (30 μL) and a solution (30 μL) of uracil in PBS (uracil concentration: 1 mg/mL) for reaction at 37° C. for one hour; and • (iii) 1 μg/mL healthy mouse IgG (product of Biological). Subsequently, the wells were washed five times with PBS-T, and to each well was added alkaline-phosphatase-labeled (AP-labeled) anti-mouse-multivalent-immunoglobulin antibody (product of Sigma), which had been 1,000-fold diluted with 0.1% gelatin, (50 μL). Subsequently, the mixture was allowed to stand for one hour at 37° C. Subsequently, the wells were washed five times with PBS-T. A solution of disodium p-nitrophenylphosphate (product of Wako Chemical Industries, Ltd.) dissolved in substrate buffer (1 mg/mL) was added to each well (100 μL/well), and left for 30 minutes at 37° C. To the reaction mixtures, 2N NAOH (50 μL/well) was added and then mixed by use of a platemixer, to thereby stop the reaction. Absorbance at 415 nm was measured by use of a microplate reader.
The percent absorption was calculated by use of the following equation: [formula] wherein, • ODPBS: Absorbance measured by means of ELISA for a sample in which the hybridoma culture supernatant had been pre-treated only with PBS), • ODuracil: Absorbance measured by means of ELISA for a sample in which the hybridoma culture supernatant had been pre-treated with uracil in PBS), and • ODcontrol: Absorbance measured in ELISA of a sample treated only with heal thy mouse IgG).
By use of the hybridoma culture supernatant obtained from the above-described incubation, the reactivity of the monoclonal antibody, CMU-1, of the present invention was studied through the indirect competitive inhibition ELISA described in Example 4.
Specifically, an aliquot (50 μL) of uracil-BSA complex (10 μg/mL) was placed in each well of a 96-well immunoplate (Immunoplate I, product of Nunc), and allowed to stand overnight at 4° C. Each well was washed five times with PBS-T (200 μL) containing 0.1% Tween 20. Subsequently, to each well of the immunoplate, PBS (200 μL) containing 0.2% gelatin serving as a blocking agent was added, and the mixture was allowed to stand overnight at 4° C. Each well was again washed five times with PBS-T, to thereby prepare a plate.
Meanwhile, each of the follow samples: • (i) a mixture of the aforementioned hybridoma culture supernatant (30 μL) and PBS (30 μL); • (ii) a reaction mixture obtained by mixing the hybridoma culture supernatant (30 μL) and PBS (30 μL) containing uracil at a concentration of 0.03-1.0 mg/mL and causing reaction to proceed at 37° C. for one hour; and • (iii) […] healthy mouse IgG (product of Biologicals) was added to a 96-well plate to which the above antigen had been adsorbed (50 μL/well), and the plate was left to stand for one hour at 37° C. […]

[2] = tested on: monoclonal antibody (SU-1) derived from hybridoma FERM BP-6141; experiment: indirect competitive inhibition ELISA, cross reactivity test with comparative monoclonal antibody SU-1; type: binding; settings: compound final concentration 0.5 mg/mL; uracil-BSA coated plate; absorbance at 415 nm
Method: Meanwhile, each of the follow samples: • (i) a mixture of the aforementioned hybridoma culture supernatant (30 μL) and PBS (30 μL); • (ii) a reaction mixture obtained by mixing the hybridoma culture supernatant (30 μL) and PBS (30 μL) containing uracil at a concentration of 0.03-1.0 mg/mL and causing reaction to proceed at 37° C. for one hour; and • (iii) […] healthy mouse IgG (product of Biologicals) was added to a 96-well plate to which the above antigen had been adsorbed (50 μL/well), and the plate was left to stand for one hour at 37° C. Subsequently, the plate was washed five times with PBS-T, and to each well, aliquots (50 μL) of AP-labeled anti-mouse antibody (serving as the second antibody, product of Sigma), which had been 1,000-fold diluted with PBS containing 0.1% gelatin, were added, and the mixtures were allowed to stand for one hour at 37° C. Subsequently, each well was washed five times with PBS-T. An enzyme substrate buffer solution (p-nitrophenylphosphate, 1 mg/mL, pH 9.8) was added to each well (100 μl/well), and left to stand for 30 minutes at 37° C. To the reaction mixtures, 2N NaOH ([…]) was added, to thereby stop the reaction. Absorbance at 415 nm was measured by use of a microplate reader. For comparison, the same procedure was independently performed on hybridoma FERM BP-6141 described in PCT publication No. WO99/20748. The percent absorption was calculated from the above-described equation.
In a manner similar to that of Example 7, reactivity of the monoclonal antibody of the present invention with other compounds was investigated. Specifically, the procedure of step (ii) of Example 7 for investigating inhibition with uracil was repeated, except that pseudouridine, dihydrouracil, dihydrothymine, thymine, cytosine, or N-carbamyl-β-alanine (1 mg/mL) was used instead of uracil (1 mg/mL), to thereby investigate reactivity of the monoclonal antibody of the present invention with uracil compounds. As a comparative antibody, a monoclonal antibody (SU-1) derived from hybridoma “FERM BP-6141” described in WO 99/20748 was used.

[3] = tested on: monoclonal antibody for psuedouridine; settings: prior art antibody used for diagnosing a progressive cancer; cited from earlier work

SMILES | percent absorption (reactivity) with monoclonal antibody CMU-1 [1] | dose-dependent response of the antibody to the compound [1] | percent absorption (reactivity) with comparative monoclonal antibody SU-1 [2] [%] | ED30 (concentration when the percent absorption reached 30%) [1] [µg/mL] | reactivity with the monoclonal antibody for pseudouridine [3] | binding ability relative to pseudouridine [1] [times] | concentration range in which the compound is detected ([1]; monoclonal antibody CMU-1, FIG. 1) [mg/mL]
Nc1cc[nH]c(=O)n1 [Cytosine] | 15% | no dose-dependent response | 15 |  |  |  | 
CC1CNC(=O)NC1=O (stereo not shown) [Dihydrothymine] | 22% | no dose-dependent response |  |  |  |  | 
O=C1CCNC(=O)N1 [Dihydrouracil] | 8% | no dose-dependent response | 2 |  |  |  | 
NC(=O)NCCC(=O)O [N-Carbamyl-β-alanine] | 8% | no dose-dependent response | 91 |  |  |  | 
O=c1[nH]cc([C@@H]2O[C@H](CO)[C@@H](O)[C@H]2O)c(=O)[nH]1 [Pseudouridine] | 32% | did exhibit dose-dependent response | 26 | 390 (≈ 1600 µM) | 95-99% |  | 
Cc1c[nH]c(=O)[nH]c1=O [Thymine] | 91-97% | exhibited dose-dependent response | 5 | 15 (≈ 119 µM) |  | 26 | 
O=c1cc[nH]c(=O)[nH]1 [Uracil] | 95-96% | exhibited dose-dependent response | 41 | 30 (≈ 268 µM) | 30-40% | 13 | 0.005 to 0.5

— US6927035B1, “Antiuracil monoclonal antibody” (Taiho Pharmaceutical Co., LTD, priority 1999, dated 2005)
